From ChEMBL document CHEMBL5291721, “A preclinical secondary pharmacology resource illuminates target-adverse drug reaction associations of marketed drugs” (Nat Commun, 2023)

Columns and labels:
[1] = target: T1, Gamma-aminobutyric acid receptor subunit alpha-1/alpha-2/beta-2/gamma-2 (Homo sapiens, UniProt P14867+P18507+P47869+P47870); assay type: functional, cell-based
[2] = target: 5-hydroxytryptamine receptor 2A (Homo sapiens, UniProt P28223)
[3] = target: T1, Gamma-aminobutyric acid receptor subunit alpha-1/alpha-2/beta-2/gamma-2; assay type: functional, cell-based; remark: listed apart in the source
[4] = target: T2, Peroxisome proliferator-activated receptor gamma (Homo sapiens, UniProt P37231); assay type: functional
T2 sequence (P37231 whole entry): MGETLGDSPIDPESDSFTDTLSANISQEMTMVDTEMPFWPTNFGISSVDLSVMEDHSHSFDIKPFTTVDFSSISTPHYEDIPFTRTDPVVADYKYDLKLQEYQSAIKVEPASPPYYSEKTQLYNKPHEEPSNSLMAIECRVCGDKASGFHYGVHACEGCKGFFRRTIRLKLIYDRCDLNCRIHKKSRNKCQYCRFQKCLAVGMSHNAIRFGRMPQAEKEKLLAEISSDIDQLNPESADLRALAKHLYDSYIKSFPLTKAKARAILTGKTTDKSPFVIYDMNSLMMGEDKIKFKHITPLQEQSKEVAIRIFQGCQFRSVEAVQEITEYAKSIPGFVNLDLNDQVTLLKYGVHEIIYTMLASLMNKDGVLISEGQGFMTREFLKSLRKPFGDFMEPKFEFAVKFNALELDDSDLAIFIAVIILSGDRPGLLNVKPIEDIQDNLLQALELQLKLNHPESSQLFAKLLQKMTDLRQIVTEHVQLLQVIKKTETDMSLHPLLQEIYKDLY

Histamine H1 receptor [5] = target: T3, Histamine H1 receptor (Homo sapiens, UniProt P35367); assay type: functional, cell-based
Androgen receptor [6] = target: T4, Androgen receptor (Rattus norvegicus, UniProt P15207); assay type: functional
T4 sequence (P15207 whole entry): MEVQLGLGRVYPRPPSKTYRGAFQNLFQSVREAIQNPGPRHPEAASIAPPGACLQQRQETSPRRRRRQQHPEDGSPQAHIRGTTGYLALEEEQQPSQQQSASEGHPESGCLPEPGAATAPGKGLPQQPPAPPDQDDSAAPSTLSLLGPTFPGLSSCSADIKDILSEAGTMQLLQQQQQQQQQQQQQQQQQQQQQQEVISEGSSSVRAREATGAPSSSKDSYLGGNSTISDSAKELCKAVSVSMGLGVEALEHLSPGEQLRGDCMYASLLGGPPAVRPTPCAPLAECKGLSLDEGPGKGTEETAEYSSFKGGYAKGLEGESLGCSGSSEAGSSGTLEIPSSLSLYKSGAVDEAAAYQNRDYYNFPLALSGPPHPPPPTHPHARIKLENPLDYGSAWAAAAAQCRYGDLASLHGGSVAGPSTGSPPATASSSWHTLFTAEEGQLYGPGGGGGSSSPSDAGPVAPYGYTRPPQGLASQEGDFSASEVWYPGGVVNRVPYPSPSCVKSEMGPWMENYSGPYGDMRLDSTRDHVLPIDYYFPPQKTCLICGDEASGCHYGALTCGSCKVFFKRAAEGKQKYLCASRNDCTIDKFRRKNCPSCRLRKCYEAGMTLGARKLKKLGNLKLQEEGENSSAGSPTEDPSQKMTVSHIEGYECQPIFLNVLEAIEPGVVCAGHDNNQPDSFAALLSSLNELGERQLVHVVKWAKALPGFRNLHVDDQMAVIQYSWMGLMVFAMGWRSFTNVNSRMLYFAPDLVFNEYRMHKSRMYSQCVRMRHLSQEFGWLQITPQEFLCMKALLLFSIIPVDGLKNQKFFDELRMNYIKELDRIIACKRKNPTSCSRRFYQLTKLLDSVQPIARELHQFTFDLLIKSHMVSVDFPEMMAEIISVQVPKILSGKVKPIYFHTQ

Androgen receptor [7] = target: T4, Androgen receptor
Histamine H1 receptor [8] = target: T3, Histamine H1 receptor; assay type: functional, cell-based; remark: listed apart in the source
D(1A) dopamine receptor = D(1A) dopamine receptor (Homo sapiens, UniProt P21728)
[9] = target: Beta-3 adrenergic receptor (Homo sapiens, UniProt P13945)
Progesterone receptor = target: T5, Progesterone receptor (Homo sapiens, UniProt P06401)
T5 sequence (P06401 whole entry): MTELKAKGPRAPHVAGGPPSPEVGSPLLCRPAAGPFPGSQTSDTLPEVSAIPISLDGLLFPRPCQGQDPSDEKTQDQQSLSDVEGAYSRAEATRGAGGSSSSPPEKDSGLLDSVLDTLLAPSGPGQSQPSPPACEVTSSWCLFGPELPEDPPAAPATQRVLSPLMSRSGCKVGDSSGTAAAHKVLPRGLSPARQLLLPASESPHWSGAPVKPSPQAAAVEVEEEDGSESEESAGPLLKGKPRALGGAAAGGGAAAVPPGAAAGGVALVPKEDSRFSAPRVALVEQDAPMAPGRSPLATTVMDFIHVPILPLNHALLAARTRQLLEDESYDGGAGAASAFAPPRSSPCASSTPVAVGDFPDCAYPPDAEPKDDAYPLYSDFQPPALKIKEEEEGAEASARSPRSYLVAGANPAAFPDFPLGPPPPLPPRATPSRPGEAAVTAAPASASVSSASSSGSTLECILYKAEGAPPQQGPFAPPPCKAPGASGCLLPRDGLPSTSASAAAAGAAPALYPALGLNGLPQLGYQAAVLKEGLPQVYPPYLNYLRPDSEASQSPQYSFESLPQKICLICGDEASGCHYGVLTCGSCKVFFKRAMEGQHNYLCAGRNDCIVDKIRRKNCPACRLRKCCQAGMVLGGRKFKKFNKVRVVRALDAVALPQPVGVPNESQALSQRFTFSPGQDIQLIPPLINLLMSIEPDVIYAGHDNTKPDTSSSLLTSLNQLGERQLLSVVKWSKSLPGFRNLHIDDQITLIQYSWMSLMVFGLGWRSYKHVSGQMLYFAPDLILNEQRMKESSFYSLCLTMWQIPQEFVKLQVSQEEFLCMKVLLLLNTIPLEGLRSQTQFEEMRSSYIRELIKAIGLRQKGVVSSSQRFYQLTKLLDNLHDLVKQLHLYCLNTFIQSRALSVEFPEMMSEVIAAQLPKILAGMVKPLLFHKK

[10] = target: Neurotensin receptor type 1 (Homo sapiens, UniProt P30989)
[11] = target: Voltage-dependent N-type calcium channel subunit alpha-1B (Rattus norvegicus, UniProt Q02294); assay type: functional
Voltage-dependent N-type calcium channel subunit alpha-1B, sequence (Q02294 whole entry): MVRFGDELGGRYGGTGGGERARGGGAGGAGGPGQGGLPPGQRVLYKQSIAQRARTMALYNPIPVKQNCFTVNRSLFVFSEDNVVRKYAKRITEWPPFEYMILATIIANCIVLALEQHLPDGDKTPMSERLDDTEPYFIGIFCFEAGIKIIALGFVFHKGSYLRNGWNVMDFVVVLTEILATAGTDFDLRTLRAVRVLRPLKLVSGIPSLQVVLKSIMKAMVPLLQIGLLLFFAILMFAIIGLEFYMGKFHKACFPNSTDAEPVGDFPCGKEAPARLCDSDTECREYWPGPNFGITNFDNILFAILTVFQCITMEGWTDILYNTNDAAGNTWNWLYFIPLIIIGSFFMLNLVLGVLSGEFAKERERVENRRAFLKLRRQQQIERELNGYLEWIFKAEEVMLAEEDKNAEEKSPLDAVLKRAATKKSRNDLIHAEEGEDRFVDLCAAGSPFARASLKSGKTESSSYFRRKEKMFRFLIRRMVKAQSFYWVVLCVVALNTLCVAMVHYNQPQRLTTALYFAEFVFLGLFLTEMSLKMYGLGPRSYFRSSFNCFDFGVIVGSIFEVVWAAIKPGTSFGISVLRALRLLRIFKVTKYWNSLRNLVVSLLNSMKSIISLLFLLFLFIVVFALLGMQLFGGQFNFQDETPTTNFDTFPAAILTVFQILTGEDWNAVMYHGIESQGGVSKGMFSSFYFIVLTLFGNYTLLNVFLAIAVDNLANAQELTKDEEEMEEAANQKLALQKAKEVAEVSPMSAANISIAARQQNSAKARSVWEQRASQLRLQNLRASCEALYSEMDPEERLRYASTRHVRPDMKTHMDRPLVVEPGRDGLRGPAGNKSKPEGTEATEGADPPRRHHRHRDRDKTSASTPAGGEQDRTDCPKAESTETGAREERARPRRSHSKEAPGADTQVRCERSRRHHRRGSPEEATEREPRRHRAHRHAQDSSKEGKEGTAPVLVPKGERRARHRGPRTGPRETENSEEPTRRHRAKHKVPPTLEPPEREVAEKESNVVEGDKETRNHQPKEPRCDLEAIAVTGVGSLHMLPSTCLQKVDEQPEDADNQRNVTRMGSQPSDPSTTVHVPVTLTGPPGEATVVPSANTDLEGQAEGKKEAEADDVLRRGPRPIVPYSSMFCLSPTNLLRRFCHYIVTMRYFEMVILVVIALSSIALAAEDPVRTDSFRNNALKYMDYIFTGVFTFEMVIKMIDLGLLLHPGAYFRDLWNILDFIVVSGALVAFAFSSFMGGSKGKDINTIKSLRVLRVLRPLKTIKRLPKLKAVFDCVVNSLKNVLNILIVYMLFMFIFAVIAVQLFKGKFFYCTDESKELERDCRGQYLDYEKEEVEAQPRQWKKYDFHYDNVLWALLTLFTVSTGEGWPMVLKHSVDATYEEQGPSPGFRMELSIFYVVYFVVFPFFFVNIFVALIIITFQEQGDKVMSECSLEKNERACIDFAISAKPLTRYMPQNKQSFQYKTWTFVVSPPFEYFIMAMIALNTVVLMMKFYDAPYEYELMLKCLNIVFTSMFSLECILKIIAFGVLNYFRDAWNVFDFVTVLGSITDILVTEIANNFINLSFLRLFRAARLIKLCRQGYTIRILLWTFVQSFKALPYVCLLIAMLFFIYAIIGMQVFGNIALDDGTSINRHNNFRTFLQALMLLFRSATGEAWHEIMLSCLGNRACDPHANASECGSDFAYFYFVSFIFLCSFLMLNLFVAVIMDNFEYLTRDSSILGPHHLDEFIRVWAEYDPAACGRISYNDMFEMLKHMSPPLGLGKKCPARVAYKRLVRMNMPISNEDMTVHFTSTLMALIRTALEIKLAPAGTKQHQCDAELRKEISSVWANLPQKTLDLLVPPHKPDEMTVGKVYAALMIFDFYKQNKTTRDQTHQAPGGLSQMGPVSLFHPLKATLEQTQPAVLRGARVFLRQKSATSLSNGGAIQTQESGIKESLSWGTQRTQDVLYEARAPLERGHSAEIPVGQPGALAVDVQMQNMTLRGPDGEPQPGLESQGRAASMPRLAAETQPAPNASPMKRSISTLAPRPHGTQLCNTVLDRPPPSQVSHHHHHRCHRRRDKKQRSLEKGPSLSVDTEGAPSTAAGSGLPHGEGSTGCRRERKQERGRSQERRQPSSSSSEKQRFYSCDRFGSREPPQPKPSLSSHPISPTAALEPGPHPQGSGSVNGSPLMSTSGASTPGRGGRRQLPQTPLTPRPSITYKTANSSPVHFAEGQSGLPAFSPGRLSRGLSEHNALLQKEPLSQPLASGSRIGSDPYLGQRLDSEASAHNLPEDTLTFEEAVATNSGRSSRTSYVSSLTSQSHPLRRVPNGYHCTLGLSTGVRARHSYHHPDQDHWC
Note: assay procedure not described here.

T1 sequence (P14867 whole entry): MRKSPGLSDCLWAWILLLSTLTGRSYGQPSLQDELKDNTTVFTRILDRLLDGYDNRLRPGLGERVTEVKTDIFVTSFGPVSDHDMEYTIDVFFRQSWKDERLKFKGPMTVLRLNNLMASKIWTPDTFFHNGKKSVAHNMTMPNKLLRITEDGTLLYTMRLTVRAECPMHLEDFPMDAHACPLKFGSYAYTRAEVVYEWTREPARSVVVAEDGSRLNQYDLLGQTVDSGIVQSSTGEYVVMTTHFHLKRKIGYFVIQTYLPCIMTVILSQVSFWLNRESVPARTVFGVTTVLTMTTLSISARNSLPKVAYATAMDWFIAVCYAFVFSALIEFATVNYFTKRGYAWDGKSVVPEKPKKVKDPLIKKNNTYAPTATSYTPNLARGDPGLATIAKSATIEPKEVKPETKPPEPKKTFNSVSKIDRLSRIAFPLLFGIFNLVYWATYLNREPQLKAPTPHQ
T1 sequence (P47870 whole entry): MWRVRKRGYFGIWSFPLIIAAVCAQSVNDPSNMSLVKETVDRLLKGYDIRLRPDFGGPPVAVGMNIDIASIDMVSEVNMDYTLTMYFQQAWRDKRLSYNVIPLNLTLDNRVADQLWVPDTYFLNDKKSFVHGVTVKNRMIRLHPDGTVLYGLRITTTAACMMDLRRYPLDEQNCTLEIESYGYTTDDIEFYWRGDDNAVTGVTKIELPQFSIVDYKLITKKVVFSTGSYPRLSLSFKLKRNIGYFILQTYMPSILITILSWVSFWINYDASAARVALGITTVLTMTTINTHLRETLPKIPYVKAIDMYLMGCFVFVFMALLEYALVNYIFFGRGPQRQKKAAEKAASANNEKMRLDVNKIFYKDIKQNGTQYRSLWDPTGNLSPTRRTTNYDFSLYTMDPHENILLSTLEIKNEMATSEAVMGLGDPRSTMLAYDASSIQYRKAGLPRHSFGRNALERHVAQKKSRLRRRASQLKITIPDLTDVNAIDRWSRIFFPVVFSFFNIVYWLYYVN
T1 sequence (P18507 whole entry): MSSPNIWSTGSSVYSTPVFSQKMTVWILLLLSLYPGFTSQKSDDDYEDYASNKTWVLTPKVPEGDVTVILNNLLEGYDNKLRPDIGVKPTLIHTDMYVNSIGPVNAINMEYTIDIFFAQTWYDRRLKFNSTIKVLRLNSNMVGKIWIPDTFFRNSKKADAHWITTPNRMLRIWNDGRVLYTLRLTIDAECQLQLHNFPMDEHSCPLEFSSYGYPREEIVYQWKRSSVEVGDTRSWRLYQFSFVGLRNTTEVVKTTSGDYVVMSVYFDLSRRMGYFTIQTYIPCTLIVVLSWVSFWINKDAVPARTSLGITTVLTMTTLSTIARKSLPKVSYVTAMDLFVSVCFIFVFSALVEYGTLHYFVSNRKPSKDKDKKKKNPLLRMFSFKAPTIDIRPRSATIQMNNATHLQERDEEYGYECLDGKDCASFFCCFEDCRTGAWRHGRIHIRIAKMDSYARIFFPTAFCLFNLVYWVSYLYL
T1 sequence (P47869 whole entry): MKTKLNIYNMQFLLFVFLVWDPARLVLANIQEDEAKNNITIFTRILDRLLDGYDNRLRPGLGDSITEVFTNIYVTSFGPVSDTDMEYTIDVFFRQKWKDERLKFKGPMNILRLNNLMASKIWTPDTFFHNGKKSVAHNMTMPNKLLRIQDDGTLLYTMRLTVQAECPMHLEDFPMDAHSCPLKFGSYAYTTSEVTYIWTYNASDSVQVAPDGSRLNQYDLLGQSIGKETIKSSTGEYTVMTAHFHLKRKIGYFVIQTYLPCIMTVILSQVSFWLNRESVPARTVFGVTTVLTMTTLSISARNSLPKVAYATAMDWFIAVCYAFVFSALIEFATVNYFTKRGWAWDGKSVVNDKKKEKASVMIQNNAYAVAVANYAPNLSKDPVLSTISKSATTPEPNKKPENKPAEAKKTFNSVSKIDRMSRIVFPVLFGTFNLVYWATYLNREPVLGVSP
5-hydroxytryptamine receptor 2A, sequence (P28223 whole entry): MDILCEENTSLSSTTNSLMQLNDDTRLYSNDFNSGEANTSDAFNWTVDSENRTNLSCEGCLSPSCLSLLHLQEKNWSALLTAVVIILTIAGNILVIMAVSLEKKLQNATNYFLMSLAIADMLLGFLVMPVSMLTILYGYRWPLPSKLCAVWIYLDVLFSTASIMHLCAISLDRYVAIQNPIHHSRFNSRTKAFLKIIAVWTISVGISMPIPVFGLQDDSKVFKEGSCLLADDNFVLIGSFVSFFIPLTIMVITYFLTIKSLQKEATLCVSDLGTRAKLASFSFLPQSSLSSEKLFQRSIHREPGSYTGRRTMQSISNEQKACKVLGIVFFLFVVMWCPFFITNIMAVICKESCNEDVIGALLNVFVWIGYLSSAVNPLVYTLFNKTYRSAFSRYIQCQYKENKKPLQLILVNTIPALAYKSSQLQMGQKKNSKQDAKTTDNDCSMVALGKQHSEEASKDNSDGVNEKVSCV

Compound	AC50 [1]	AC50 [2]	AC50 [3]	AC50 [4]	AC50 (Histamine H1 receptor [5])	AC50 (Androgen receptor [6])	AC50 (Androgen receptor [7])	AC50 (Histamine H1 receptor [8])	AC50 (D(1A) dopamine receptor)	AC50 [9]	AC50 (Progesterone receptor)	AC50 [10]	AC50 [11]
CCN(CC)C(=O)C1CN2CCc3cc(OC)c(OC)cc3C2CC1OC(C)=O (configuration not stated) [BENZQUINAMIDE]	> 30 µM	0.588 µM	> 30 µM	> 30 µM	> 30 µM	> 30 µM	> 10 µM	> 30 µM	–	–	–	–	–
CCCC(C)(COC(N)=O)COC(=O)NC(C)C (configuration not stated) [CARISOPRODOL]	–	> 10 µM	–	–	> 30 µM	–	–	> 30 µM	> 10 µM	> 30 µM	> 30 µM	> 30 µM	> 10 µM
COCCOC(=O)C1=C(C)NC(C)=C(C(=O)OC/C=C/c2ccccc2)C1c1cccc([N+](=O)[O-])c1 (configuration not stated) [CILNIDIPINE]	> 30 µM	–	> 30 µM	–	> 30 µM	–	–	> 30 µM	–	–	–	–	–
CC(C)(C)NCC(O)c1cc(Cl)c(N)c(Cl)c1 (configuration not stated) [CLENBUTEROL]	> 30 µM	–	–	–	–	> 30 µM	> 30 µM	–	–	–	–	–	–
O=C(O)c1ccccc1Nc1cccc(C(F)(F)F)c1 [FLUFENAMIC ACID]	–	0.0771 µM	–	–	–	–	> 30 µM	–	–	> 30 µM	> 30 µM	> 30 µM	> 10 µM
CC1(C)C(/C=C/C=C/C=C/C=C2\N(CCCCS(=O)(=O)O)c3ccc4ccccc4c3C2(C)C)=[N+](CCCCS(=O)(=O)[O-])c2ccc3ccccc3c21 [INDOCYANINE GREEN ACID FORM]	> 30 µM	–	–	–	> 30 µM	6.8 µM	–	> 30 µM	–	–	–	–	–
CCCC[C@H](C)C[C@H](O)/C=C/[C@H]1[C@H](O)CC(=O)[C@@H]1CCCC/C=C/C(=O)O [LIMAPROST]	> 30 µM	–	> 30 µM	> 30 µM	> 30 µM	–	–	> 30 µM	–	–	–	–	–
CC#CCn1c(N2CCC[C@@H](N)C2)nc2c1c(=O)n(Cc1nc(C)c3ccccc3n1)c(=O)n2C [LINAGLIPTIN]	–	> 10 µM	–	–	–	–	> 30 µM	–	> 10 µM	> 30 µM	> 30 µM	–	> 10 µM
Cc1ccc(NC(=O)C2(c3ccc4c(c3)OC(F)(F)O4)CC2)nc1-c1cccc(C(=O)O)c1 [LUMACAFTOR]	–	–	> 30 µM	> 30 µM	> 30 µM	–	–	> 30 µM	–	–	–	–	–
CCOC(=O)Nc1ccc2c(c1)N(C(=O)CCN1CCOCC1)c1ccccc1S2 [MORICIZINE]	–	–	> 30 µM	> 30 µM	> 30 µM	> 30 µM	–	> 30 µM	–	–	–	–	–
O=C1Nc2ccc(Cl)cc2C(c2ccccc2)=NC1O (configuration not stated) [OXAZEPAM]	–	> 10 µM	–	–	> 30 µM	–	–	> 30 µM	> 10 µM	> 30 µM	> 30 µM	> 30 µM	> 10 µM
Cc1ccc(=O)n(-c2ccccc2)c1 [PIRFENIDONE]	> 30 µM	> 10 µM	> 30 µM	> 30 µM	> 30 µM	–	–	> 30 µM	–	–	–	–	–
NC(=O)CCC/N=C(\c1ccc(Cl)cc1)c1cc(F)ccc1O [PROGABIDE]	–	> 10 µM	–	–	–	–	> 10 µM	–	–	–	–	–	–
Cc1ccc2c(-c3ccccc3)nc(=O)n(C(C)C)c2c1 [PROQUAZONE]	> 30 µM	–	> 30 µM	–	> 30 µM	–	–	> 30 µM	–	–	–	–	–
CN1CCN(c2c(F)cc3c(=O)c(C(=O)O)cn4c3c2SCC4)CC1 [RUFLOXACIN]	> 30 µM	–	> 30 µM	–	> 30 µM	–	–	> 30 µM	–	–	–	–	–
CN1c2ccccc2C(NCCCCCCC(=O)O)c2ccc(Cl)cc2S1(=O)=O (configuration not stated) [TIANEPTINE]	> 30 µM	–	> 30 µM	–	> 30 µM	–	–	> 30 µM	–	–	–	–	–
N#C[C@@H]1CCCN1C(=O)CNC12CC3CC(CC(O)(C3)C1)C2 [VILDAGLIPTIN]	–	> 10 µM	–	–	–	–	> 30 µM	–	> 10 µM	–	> 30 µM	> 10 µM	> 10 µM
